Measured values published in patent US9687569B2, “Theranostic nanoparticle and methods for making and using the nanoparticle” (priority 2012, dated 2017).

Assays:
[1] = tested on: C6-ADR cells; assay: Intracellular DOX quantification; type: cell-based, rat; details: for intracellular concentration of DOX: 1000 ng/mL DOX
Procedure: Concurrently, intracellular concentration of DOX was determined (FIG. 6B) by UV analysis.

[2] = tested on: C6-ADR cells; assay: Fluorescence and confocal imaging of intracellular DOX; type: cell-based, rat
Procedure: The internalization pathway of free DOX and NP-DOX were investigated by labeling endosomal compartments of cells with calcein after incubation with cells for 4 h.
C6-ADR cells were plated at 500,000 cells per well in 6-well plates containing 22×22 mm glass cover slips the night before treatment. Cells were treated with 1000 ng/mL free DOX or NP-DOX with equimolar concentration of DOX in 2 mL fully supplemented DMEM for 4 hrs before cells were washed three times with PBS and 2 mL fresh fully supplemented media added. After 24 hrs, cells were washed three times with PBS, and fixed in 4% formaldehyde (Polysciences Inc., Warrington, Pa.) for 30 min. Cell membranes were stained with wheat germ agglutinin, Alexa Fluor 488 conjugates (WGA-AF488, Invitrogen, Carlsbad, Calif.) following the manufacturer's protocol. The cover slips were then mounted on microscope slides using Prolong Gold anti-fade solution (Invitrogen, Carlsbad, Calif.) containing DAPI for cell nuclei staining. Images were acquired on an inverted fluorescent microscope (Nikon Instruments, Melville, N.Y.) with the appropriate filters using a Nikon Ril Color Cooled Camera System and 60× oil objective Lens. For internalization pathway experiment, cells were treated with DOX or NP-DOX in the presence of 0.25 mM calcein for 4 hrs. […] DOX and calcein uptake were analyzed using confocal microscopy (Zeiss 510 Meta).

## COc1cccc2c1C(=O)c1c(O)c3c(c(O)c1C2=O)C[C@@](O)(C(=O)CO)C[C@@H]3O[C@H]1C[C@H](N)[C@H](O)[C@H](C)O1.Cl [free DOX, Doxorubicin.HCl]
[1]; 24 h after treatment
  intracellular concentration of DOX: 0.13±0.01 pg/cell
[1]; by 24 h after initial exposure
  decrease of intracellular DOX concentration: 91%
[1]; four hours after treatment
  intracellular concentration of DOX: 1.49±0.05 pg/cell
[2]; C6-ADR cells treated 4 h, imaged 24 h after initial incubation
  intracellular DOX fluorescence: minimal fluorescence
[2]; C6-ADR cells, 4 h incubation, confocal
  intracellular localization of DOX signal (calcein-labeled endosomes): partially colocalized with nucleus and partially localized in cytoplasma
